In US20210283261A1, “Compositions and Methods for Treating ALK-Mediated Cancer” (ICAHN SCHOOL OF MEDICINE AT MOUNT SINAI, priority 2017, published 2021) one finds Dmax data, which are given here for 15 compounds.

Bounds are passed on as bounds.

This assay deals with T1, ALK fusion protein (Homo sapiens, UniProt Q9UM73).
T1 construct: endogenous in cells; host or cells: NCI-H3122; the other entry of the earlier key: EML4 (Q9HC35, Echinoderm microtubule-associated protein-like 4)
The assay is described as follows: Western blot of ALK fusion protein levels in NCI-H3122 cells. Type of assay: cell-based. The conditions noted are these: NCI-H3122, NCI-H3122 cells, 500 nM, Western blot; read-out: ALK fusion protein degradation, NCI-H3122 (500 nM). How it is done: SU-DHL-1, NCI-H3122 and NCI-H2228 cells were cultured in RPMI-1640 medium supplemented with 10% fetal bovine serum, 50 μg/mL penicillin and streptomycin. Cells were cultured in a 37° C. incubator with 5% CO2.
Cells were washed with cold PBS once and lysed in 1× Laemmli loading buffer directly. Lysates were heated at 99° C. for […], and resolved on 4-15% precast SDS-PAGE (BIO-RAD) and transferred onto PVDF membrane. Membrane was blocked in 5% milk in Tris-buffered saline and Tween 20 (TBST) for 1 h at room temperature, followed by incubation with a primary antibody overnight at 4° C., and a horseradish peroxidase (HRP)-conjugated secondary antibody for 1 h at room temperature. The membrane was imaged by a ChemiDoc MP imaging system (BIO-RAD). Antibodies against GAPDH (abeam), Phospho-ALK (Tyr1507), ALK (Cell Signaling Technology), Tubulin (Santa Cruz) were purchased commercially. […]
(Immunoblotting shows a protein as a band on a membrane.)

T1 sequence (Q9UM73 with tags, fused parts or gaps): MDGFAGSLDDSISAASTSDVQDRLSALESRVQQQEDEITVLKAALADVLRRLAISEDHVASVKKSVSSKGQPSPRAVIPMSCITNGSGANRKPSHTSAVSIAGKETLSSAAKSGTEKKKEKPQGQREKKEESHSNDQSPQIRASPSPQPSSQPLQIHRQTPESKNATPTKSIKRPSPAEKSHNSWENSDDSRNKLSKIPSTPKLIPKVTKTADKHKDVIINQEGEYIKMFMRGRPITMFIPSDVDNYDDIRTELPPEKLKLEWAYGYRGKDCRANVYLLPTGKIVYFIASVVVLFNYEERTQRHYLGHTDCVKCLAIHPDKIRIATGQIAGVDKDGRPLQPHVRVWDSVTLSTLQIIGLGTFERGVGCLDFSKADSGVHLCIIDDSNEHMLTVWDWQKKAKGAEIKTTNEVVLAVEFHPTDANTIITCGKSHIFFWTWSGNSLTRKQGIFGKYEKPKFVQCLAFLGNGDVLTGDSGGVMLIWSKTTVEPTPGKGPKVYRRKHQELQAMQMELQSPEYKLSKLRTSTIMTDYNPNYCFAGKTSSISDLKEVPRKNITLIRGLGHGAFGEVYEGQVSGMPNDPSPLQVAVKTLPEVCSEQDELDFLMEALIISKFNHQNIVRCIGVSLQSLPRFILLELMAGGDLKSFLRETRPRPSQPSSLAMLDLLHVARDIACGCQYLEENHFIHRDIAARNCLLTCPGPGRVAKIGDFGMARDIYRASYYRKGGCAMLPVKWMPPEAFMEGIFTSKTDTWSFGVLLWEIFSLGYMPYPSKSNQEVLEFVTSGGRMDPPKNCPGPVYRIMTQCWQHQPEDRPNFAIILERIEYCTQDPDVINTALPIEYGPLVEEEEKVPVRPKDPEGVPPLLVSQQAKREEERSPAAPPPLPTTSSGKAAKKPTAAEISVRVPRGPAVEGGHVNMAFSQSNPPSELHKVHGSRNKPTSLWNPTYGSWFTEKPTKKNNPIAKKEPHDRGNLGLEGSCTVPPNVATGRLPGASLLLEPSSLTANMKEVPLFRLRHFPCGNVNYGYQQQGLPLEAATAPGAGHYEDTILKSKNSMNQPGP

On to `Cc1cc(Nc2ncc(Cl)c(Nc3ccccc3S(=O)(=O)C(C)C)n2)c(OC(C)C)cc1C1CCN(C(=O)CCCCCCC(=O)N[C@H](C(=O)N2C[C@H](O)C[C@H]2C(=O)NCc2ccc(-c3scnc3C)cc2)C(C)(C)C)CC1` [CZ47-26, (2S,4R)-1-((S)-2-(8-(4-(4-((5-Chloro-4-((2-(isopropylsulfonyl)phenyl)amino)pyrimidin-2-yl)amino)-5-isopropoxy-2-methylphenyl)piperidin-1-yl)-8-oxooctanamido)-3,3-dimethylbutanoyl)-4-hydroxy-N-(4-(4-methylthiazol-5-yl)benzyl)pyrrolidine-2-carboxamide], for which the Dmax at 0.5 µM is over 80%.
Regarding `Cc1cc(Nc2ncc(Cl)c(Nc3ccccc3S(=O)(=O)C(C)C)n2)c(OC(C)C)cc1C1CCN(C(=O)CCCCCNc2cccc3c2C(=O)N(C2CCC(=O)NC2=O)C3=O)CC1` (stereo not drawn) [CZ47-05, 4-((6-(4-(4-((5-Chloro-4-((2-(isopropylsulfonyl)phenyl)amino)pyrimidin-2-yl)amino)-5-isopropoxy-2-methylphenyl)piperidin-1-yl)-6-oxohexyl)amino)-2-(2,6-dioxopiperidin-3-yl)isoindoline-1,3-dione], the Dmax at 0.5 µM was under 20%.
In the case of `Cc1cc(Nc2ncc(Cl)c(Nc3ccccc3S(=O)(=O)C(C)C)n2)c(OC(C)C)cc1C1CCN(C(=O)CCCCCCCC(=O)N[C@H](C(=O)N2C[C@H](O)C[C@H]2C(=O)NCc2ccc(-c3scnc3C)cc2)C(C)(C)C)CC1` [CZ47-27, (2S,4R)-1-((S)-2-(9-(4-(4-((5-Chloro-4-((2-(isopropylsulfonyl)phenyl)amino)pyrimidin-2-yl)amino)-5-isopropoxy-2-methylphenyl)piperidin-1-yl)-9-oxononanamido)-3,3-dimethylbutanoyl)-4-hydroxy-7V-(4-(4-methylthiazol-5-yl)benzyl)pyrrolidine-2-carboxamide], the Dmax at 0.5 µM was over 80%.
For `Cc1cc(Nc2ncc(Cl)c(Nc3ccccc3S(=O)(=O)C(C)C)n2)c(OC(C)C)cc1C1CCN(C(=O)CCOCCOCCOCCOCCC(=O)N[C@H](C(=O)N2C[C@H](O)C[C@H]2C(=O)NCc2ccc(-c3scnc3C)cc2)C(C)(C)C)CC1` [CZ47-19, (2S,4R)-1-((S)-2-(tert-Butyl)-19-(4-(4-((5-chloro-4-((2-(isopropylsulfonyl)phenyl)amino)pyrimidin-2-yl)amino)-5-isopropoxy-2-methylphenyl)piperidin-1-yl)-4,19-dioxo-7,10,13,16-tetraoxa-3-azanonadecanoyl)-4-hydroxy-N-(4-(4-methylthiazol-5-yl)benzyl)pyrrolidine-2-carboxamide] the value was under 20%; for `Cc1cc(Nc2ncc(Cl)c(Nc3ccccc3S(=O)(=O)C(C)C)n2)c(OC(C)C)cc1C1CCN(C(=O)CCCCCC(=O)N[C@H](C(=O)N2C[C@H](O)C[C@H]2C(=O)NCc2ccc(-c3scnc3C)cc2)C(C)(C)C)CC1` [CZ47-25, (2S,4R)-1-((S)-2-(7-(4-(4-((5-Chloro-4-((2-(isopropylsulfonyl)phenyl)amino)pyrimidin-2-yl)amino)-5-isopropoxy-2-methylphenyl)piperidin-1-yl)-7-oxoheptanamido)-3,3-dimethylbutanoyl)-4-hydroxy-N-(4-(4-methylthiazol-5-yl)benzyl)pyrrolidine-2-carboxamide], over 80%.
For `Cc1cc(Nc2ncc(Cl)c(Nc3ccccc3S(=O)(=O)C(C)C)n2)c(OC(C)C)cc1C1CCN(C(=O)CCCCCCNc2cccc3c2C(=O)N(C2CCC(=O)NC2=O)C3=O)CC1` (stereo not drawn) [CZ47-06, 4-((7-(4-(4-((5-Chloro-4-((2-(isopropylsulfonyl)phenyl)amino)pyrimidin-2-yl)amino)-5-isopropoxy-2-methylphenyl)piperidin-1-yl)-7-oxoheptyl)amino)-2-(2,6-dioxopiperidin-3-yl)isoindoline-1,3-dione] the value was under 20%; for `Cc1cc(Nc2ncc(Cl)c(Nc3ccccc3S(=O)(=O)C(C)C)n2)c(OC(C)C)cc1C1CCN(C(=O)CCOCCOCCNc2cccc3c2C(=O)N(C2CCC(=O)NC2=O)C3=O)CC1` (stereo not drawn) [CZ47-09, 4-((2-(2-(3-(4-(4-((5-Chloro-4-((2-(isopropylsulfonyl)phenyl)amino)pyrimidin-2-yl)amino)-5-isopropoxy-2-methylphenyl)piperidin-1-yl)-3-oxopropoxy)ethoxy)ethyl)amino)-2-(2,6-dioxopiperidin-3-yl)isoindoline-1,3-dione], over 80%.
To `Cc1cc(Nc2ncc(Cl)c(Nc3ccccc3S(=O)(=O)C(C)C)n2)c(OC(C)C)cc1C1CCN(C(=O)CCCCCCCNc2cccc3c2C(=O)N(C2CCC(=O)NC2=O)C3=O)CC1` (stereo not drawn) [CZ47-07, 4-((8-(4-(4-((5-Chloro-4-((2-(isopropylsulfonyl)phenyl)amino)pyrimidin-2-yl)amino)-5-isopropoxy-2-methylphenyl)piperidin-1-yl)-8-oxooctyl)amino)-2-(2,6-dioxopiperidin-3-yl)isoindoline-1,3-dione] belongs 20 to 80%; to `Cc1cc(Nc2ncc(Cl)c(Nc3ccccc3S(=O)(=O)C(C)C)n2)c(OC(C)C)cc1C1CCN(C(=O)CCC(=O)N[C@H](C(=O)N2C[C@H](O)C[C@H]2C(=O)NCc2ccc(-c3scnc3C)cc2)C(C)(C)C)CC1` [CZ47-22, (2S,4R)-1-((S)-2-(4-(4-(4-((5-Chloro-4-((2-(isopropylsulfonyl)phenyl)amino)pyrimidin-2-yl)amino)-5-isopropoxy-2-methylphenyl)piperidin-1-yl)-4-oxobutanamido)-3,3-dimethylbutanoyl)-4-hydroxy-N-(4-(4-methylthiazol-5-yl)benzyl)pyrrolidine-2-carboxamide], 20 to 80%; to `Cc1cc(Nc2ncc(Cl)c(Nc3ccccc3S(=O)(=O)C(C)C)n2)c(OC(C)C)cc1C1CCN(C(=O)COCCOCCOCCOCCOCC(=O)N[C@H](C(=O)N2C[C@H](O)C[C@H]2C(=O)NCc2ccc(-c3scnc3C)cc2)C(C)(C)C)CC1` [CZ47-20, (2S,4R)-1-((S)-2-(tert-Butyl)-20-(4-(4-((5-chloro-4-((2-(isopropylsulfonyl)phenyl)amino)pyrimidin-2-yl)amino)-5-isopropoxy-2-methylphenyl)piperidin-1-yl)-4,20-dioxo-6,9,12,15,18-pentaoxa-3-azaicosanoyl)-4-hydroxy-N-(4-(4-methylthiazol-5-yl)benzyl)pyrrolidine-2-carboxamide], under 20%.
Take `Cc1cc(Nc2ncc(Cl)c(Nc3ccccc3S(=O)(=O)C(C)C)n2)c(OC(C)C)cc1C1CCN(C(=O)CCOCCOCCOCCC(=O)N[C@H](C(=O)N2C[C@H](O)C[C@H]2C(=O)NCc2ccc(-c3scnc3C)cc2)C(C)(C)C)CC1` [CZ47-18, (2S,4R)-1-((S)-2-(tert-Butyl)-16-(4-(4-((5-chloro-4-((2-(isopropylsulfonyl)phenyl)amino)pyrimidin-2-yl)amino)-5-isopropoxy-2-methylphenyl)piperidin-1-yl)-4,16-dioxo-7,10,13-trioxa-3-azahexadecanoyl)-4-hydroxy-N-(4-(4-methylthiazol-5-yl)benzyl)pyrrolidine-2-carboxamide]: the Dmax at 0.5 µM was under 20%.
With `Cc1cc(Nc2ncc(Cl)c(Nc3ccccc3S(=O)(=O)C(C)C)n2)c(OC(C)C)cc1C1CCN(C(=O)CNc2cccc3c2C(=O)N(C2CCC(=O)NC2=O)C3=O)CC1` (stereo not drawn) [CZ47-01, 4-((2-(4-(4-((5-Chloro-4-((2-(isopropylsulfonyl)phenyl)amino)pyrimidin-2-yl)amino)-5-isopropoxy-2-methylphenyl)piperidin-1-yl)-2-oxoethyl)amino)-2-(2,6-dioxopiperidin-3-yl)isoindoline-1,3-dione], the Dmax at 0.5 µM was under 20%.
For `Cc1cc(Nc2ncc(Cl)c(Nc3ccccc3S(=O)(=O)C(C)C)n2)c(OC(C)C)cc1C1CCN(C(=O)CCOCCC(=O)N[C@H](C(=O)N2C[C@H](O)C[C@H]2C(=O)NCc2ccc(-c3scnc3C)cc2)C(C)(C)C)CC1` [CZ47-14, (2S,4R)-1-((S)-2-(3-(3-(4-(4-((5-Chloro-4-((2-(isopropylsulfonyl)phenyl)amino)pyrimidin-2-yl)amino)-5-isopropoxy-2-methylphenyl)piperidin-1-yl)-3-oxopropoxy)propanamido)-3,3-dimethylbutanoyl)-4-hydroxy-N-(4-(4-methylthiazol-5-yl)benzyl)pyrrolidine-2-carboxamide] the value was 20 to 80%.
For `Cc1cc(Nc2ncc(Cl)c(Nc3ccccc3S(=O)(=O)C(C)C)n2)c(OC(C)C)cc1C1CCN(C(=O)CCOCCOCCC(=O)N[C@H](C(=O)N2C[C@H](O)C[C@H]2C(=O)NCc2ccc(-c3scnc3C)cc2)C(C)(C)C)CC1` [CZ47-16, (2S,4R)-1-((S)-2-(3-(2-(3-(4-(4-((5-Chloro-4-((2-(isopropylsulfonyl)phenyl)amino)pyrimidin-2-yl)amino)-5-isopropoxy-2-methylphenyl)piperidin-1-yl)-3-oxopropoxy)ethoxy)propanamido)-3,3-dimethylbutanoyl)-4-hydroxy-N-(4-(4-methylthiazol-5-yl)benzyl)pyrrolidine-2-carboxamide] the value was under 20%.
For `Cc1cc(Nc2ncc(Cl)c(Nc3ccccc3S(=O)(=O)C(C)C)n2)c(OC(C)C)cc1C1CCN(C(=O)COCC(=O)N[C@H](C(=O)N2C[C@H](O)C[C@H]2C(=O)NCc2ccc(-c3scnc3C)cc2)C(C)(C)C)CC1` [CZ47-13, (2S,4R)-1-((S)-2-(2-(2-(4-(4-((5-Chloro-4-((2-(isopropylsulfonyl)phenyl)amino)pyrimidin-2-yl)amino)-5-isopropoxy-2-methylphenyl)piperidin-1-yl)-2-oxoethoxy)acetamido)-3,3-dimethylbutanoyl)-4-hydroxy-N-(4-(4-methylthiazol-5-yl)benzyl)pyrrolidine-2-carboxamide] the value was 20 to 80%.
